Measured values as given in PubChem BioAssay AID256 (DTP/NCI, 2004).
Several values for one entry are separate records, joined by “and”; a condition that tells them apart may be missing. Equal values may be shown once. Inconclusive results and toxic doses are left out.

Tested on: CD2F1 mice, L1210 leukemia ip, survival T/C
Assay: NCI In Vivo Anticancer Drug Screen. Data for tumor model L1210 Leukemia (intraperitoneal) in CD2F1 (CDF1) mice
Conditions: higher = longer survival
How it was run: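 Ratio T/C, where T is the treated-group value and C the vehicle-dosed control value, from mice implanted with a transplantable tumor.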

[1] = endpoint: mean survival time, dose: 6.25 mg/kg/injection, schedule: Q01DX009 (ip), vehicle: saline with Tween-80
[2] = endpoint: mean survival time, dose: 12.5 mg/kg/injection, schedule: Q01DX009 (ip), vehicle: saline with Tween-80

Structure (SMILES): ONc1nc(NO)c2[nH]cnc2n1
- T/C (endpoint: mean survival time, dose: 2.3 mg/kg/injection, schedule: Q01DX001 (ip), vehicle: other): 124 % of control
- T/C (endpoint: mean survival time, dose: 3.5 mg/kg/injection, schedule: Q01DX001 (ip), vehicle: other): 122 % of control
- T/C (endpoint: mean survival time, dose: 8.0 mg/kg/injection, schedule: Q01DX001 (ip), vehicle: other): 160 % of control and 168 % of control
- T/C (endpoint: mean survival time, dose: 12.5 mg/kg/injection, schedule: Q01DX001 (ip), vehicle: other): 153 % of control
- T/C (endpoint: mean survival time, dose: 29.0 mg/kg/injection, schedule: Q01DX001 (ip), vehicle: other): 156 % of control
- T/C (endpoint: mean survival time, dose: 44.0 mg/kg/injection, schedule: Q01DX001 (ip), vehicle: other): 153 % of control and 172 % of control
- T/C (endpoint: mean survival time, dose: 66.0 mg/kg/injection, schedule: Q01DX001 (ip), vehicle: other): 190 % of control
- T/C (endpoint: mean survival time, dose: 100.0 mg/kg/injection, schedule: Q01DX001 (ip), vehicle: other): 202 % of control
- T/C (endpoint: mean survival time, dose: 150.0 mg/kg/injection, schedule: Q01DX001 (ip), vehicle: other): 182 % of control

Structure (SMILES): [O-]/[N+](=C\c1ccccc1)C1CCCCC1
- T/C (endpoint: mean survival time, dose: 100.0 mg/kg/injection, schedule: Q01DX001 (ip), vehicle: saline with Tween-80): 94 % of control
- T/C (endpoint: mean survival time, dose: 200.0 mg/kg/injection, schedule: Q01DX001 (ip), vehicle: saline with Tween-80): 95 % of control
- T/C (endpoint: mean survival time, dose: 400.0 mg/kg/injection, schedule: Q01DX001 (ip), vehicle: saline with Tween-80): 95 % of control

Structure (SMILES): CCN(CC)C(=O)N1CC2CCC(C1)N2C
- T/C (endpoint: mean survival time, dose: 100.0 mg/kg/injection, schedule: Q04DX003 (ip), vehicle: saline): 100 % of control

Structure (SMILES): CC(C)(C)CC(C)(C)SSc1n[nH]c(=S)s1
- T/C (endpoint: mean survival time, dose: 2.5 mg/kg/injection, schedule: Q04DX003 (ip), vehicle: Klucel (hydroxypropylcellulose) (HPC)): 102 % of control
- T/C (endpoint: mean survival time, dose: 5.0 mg/kg/injection, schedule: Q04DX003 (ip), vehicle: Klucel (hydroxypropylcellulose) (HPC)): 101 % of control
- T/C (endpoint: mean survival time, dose: 10.0 mg/kg/injection, schedule: Q04DX003 (ip), vehicle: Klucel (hydroxypropylcellulose) (HPC)): 98 % of control and 101 % of control

Structure (SMILES): C/C(=N/N)c1ccc(Br)cc1
- T/C [1]: 106 % of control
- T/C (endpoint: mean survival time, dose: 6.25 mg/kg/injection, schedule: Q04DX003 (ip), vehicle: saline with Tween-80): 101 % of control
- T/C [2]: 116 % of control
- T/C (endpoint: mean survival time, dose: 12.5 mg/kg/injection, schedule: Q04DX003 (ip), vehicle: saline with Tween-80): 98 % of control
- T/C (endpoint: mean survival time, dose: 25.0 mg/kg/injection, schedule: Q01DX009 (ip), vehicle: saline with Tween-80): 110 % of control
- T/C (endpoint: mean survival time, dose: 25.0 mg/kg/injection, schedule: Q04DX003 (ip), vehicle: saline with Tween-80): 95 % of control

Structure (SMILES): COC(=O)C(C)NC(=O)OCc1ccccc1 (configuration not stated)
- T/C (endpoint: mean survival time, dose: 100.0 mg/kg/injection, schedule: Q04DX003 (ip), vehicle: saline with Tween-80): 96 % of control
- T/C (endpoint: mean survival time, dose: 200.0 mg/kg/injection, schedule: Q04DX003 (ip), vehicle: saline with Tween-80): 98 % of control
- T/C (endpoint: mean survival time, dose: 400.0 mg/kg/injection, schedule: Q04DX003 (ip), vehicle: saline with Tween-80): 101 % of control

Structure (SMILES): CC(C)C(=O)OC1(C(C)c2ccccc2)C(=O)NC(=O)NC1=O (configuration not stated)
- T/C [1]: 92 % of control
- T/C [2]: 97 % of control
- T/C (endpoint: mean survival time, dose: 25.0 mg/kg/injection, schedule: Q04DX002 (ip), vehicle: saline with Tween-80): 91 % of control

Structure (SMILES): c1cncc(C2OCCO2)c1
- T/C (endpoint: mean survival time, dose: 100.0 mg/kg/injection, schedule: Q01DX009 (ip), vehicle: saline): 105 % of control
- T/C (endpoint: mean survival time, dose: 200.0 mg/kg/injection, schedule: Q01DX009 (ip), vehicle: saline): 100 % of control
- T/C (endpoint: mean survival time, dose: 400.0 mg/kg/injection, schedule: Q01DX009 (ip), vehicle: saline): 100 % of control

Structure (SMILES): CCOC(=O)/N=[N+](\[O-])c1ccccc1
- T/C (endpoint: median survival time, dose: 3.12 mg/kg/injection, schedule: Q01DX009 (ip), vehicle: saline with Tween-80): 109 % of control
- T/C (endpoint: median survival time, dose: 6.25 mg/kg/injection, schedule: Q01DX009 (ip), vehicle: saline with Tween-80): 112 % of control
- T/C (endpoint: median survival time, dose: 12.5 mg/kg/injection, schedule: Q01DX009 (ip), vehicle: saline with Tween-80): 105 % of control

Structure (SMILES): Cc1ccc(C(=O)CCCCl)c(C)c1
- T/C (endpoint: mean survival time, dose: 100.0 mg/kg/injection, schedule: Q01DX009 (ip), vehicle: saline with Tween-80): 111 % of control
- T/C (endpoint: mean survival time, dose: 200.0 mg/kg/injection, schedule: Q01DX009 (ip), vehicle: saline with Tween-80): 104 % of control
- T/C (endpoint: mean survival time, dose: 400.0 mg/kg/injection, schedule: Q01DX009 (ip), vehicle: saline with Tween-80): 104 % of control

Structure (SMILES): Cc1cn(C2CC3OP(=O)(OCc4ccccc4)OCC3O2)c(=O)[nH]c1=O (configuration not stated)
- T/C (endpoint: median survival time, dose: 12.5 mg/kg/injection, schedule: Q01DX005 (ip), vehicle: distilled water + Tween-80): 100 % of control
- T/C (endpoint: median survival time, dose: 25.0 mg/kg/injection, schedule: Q01DX005 (ip), vehicle: distilled water + Tween-80): 101 % of control
- T/C (endpoint: median survival time, dose: 50.0 mg/kg/injection, schedule: Q01DX005 (ip), vehicle: distilled water + Tween-80): 102 % of control
- T/C (endpoint: median survival time, dose: 100.0 mg/kg/injection, schedule: Q01DX005 (ip), vehicle: distilled water + Tween-80): 104 % of control
- T/C (endpoint: median survival time, dose: 200.0 mg/kg/injection, schedule: Q01DX005 (ip), vehicle: distilled water + Tween-80): 98 % of control
